Measurements taken from US20220356494A1, “METHODS AND COMPOSITIONS FOR TREATING CANCER” (Engine Biosciences Pte. Ltd., priority 2019, published 2022).
Where two headings read alike, the source gives them in different places. Values belong to the molecule of their own block, whether it stands above or below them.

How the values were obtained:
cancer cell lines = assay: Cellular IC50 (GI50) of RON inhibitors with or without Dasatinib in cancer cell lines; format: cell-based; details: all tested cell lines; co-administered with Dasatinib
Source text: FIGS. 12A-12C show additional example data of a small molecule approach to inhibit SRC and RON in cancer cells. As described herein, one approach to validate the CombiGEM results (dual SRC and RON knockout using Cas and DNA constructs) can include using small molecule inhibitors to reduce function of SRC or RON. […] FIG. 12B and FIG. 12C show plots of GI50 as a function of treatment with RON inhibitors Foretinib or a Met/Ron inhibitor, respectively, co-administered with Dasatinib.

[1] = system: MDA-MB-231 tumor xenografts; assay: MDA-MB-231 tumor xenograft, tumor volume
RON [2] = target: T1, RON (Homo sapiens, UniProt Q04912); assay: RON inhibition (percent activity vs log concentration)
T1 sequence (Q04912 25-1400): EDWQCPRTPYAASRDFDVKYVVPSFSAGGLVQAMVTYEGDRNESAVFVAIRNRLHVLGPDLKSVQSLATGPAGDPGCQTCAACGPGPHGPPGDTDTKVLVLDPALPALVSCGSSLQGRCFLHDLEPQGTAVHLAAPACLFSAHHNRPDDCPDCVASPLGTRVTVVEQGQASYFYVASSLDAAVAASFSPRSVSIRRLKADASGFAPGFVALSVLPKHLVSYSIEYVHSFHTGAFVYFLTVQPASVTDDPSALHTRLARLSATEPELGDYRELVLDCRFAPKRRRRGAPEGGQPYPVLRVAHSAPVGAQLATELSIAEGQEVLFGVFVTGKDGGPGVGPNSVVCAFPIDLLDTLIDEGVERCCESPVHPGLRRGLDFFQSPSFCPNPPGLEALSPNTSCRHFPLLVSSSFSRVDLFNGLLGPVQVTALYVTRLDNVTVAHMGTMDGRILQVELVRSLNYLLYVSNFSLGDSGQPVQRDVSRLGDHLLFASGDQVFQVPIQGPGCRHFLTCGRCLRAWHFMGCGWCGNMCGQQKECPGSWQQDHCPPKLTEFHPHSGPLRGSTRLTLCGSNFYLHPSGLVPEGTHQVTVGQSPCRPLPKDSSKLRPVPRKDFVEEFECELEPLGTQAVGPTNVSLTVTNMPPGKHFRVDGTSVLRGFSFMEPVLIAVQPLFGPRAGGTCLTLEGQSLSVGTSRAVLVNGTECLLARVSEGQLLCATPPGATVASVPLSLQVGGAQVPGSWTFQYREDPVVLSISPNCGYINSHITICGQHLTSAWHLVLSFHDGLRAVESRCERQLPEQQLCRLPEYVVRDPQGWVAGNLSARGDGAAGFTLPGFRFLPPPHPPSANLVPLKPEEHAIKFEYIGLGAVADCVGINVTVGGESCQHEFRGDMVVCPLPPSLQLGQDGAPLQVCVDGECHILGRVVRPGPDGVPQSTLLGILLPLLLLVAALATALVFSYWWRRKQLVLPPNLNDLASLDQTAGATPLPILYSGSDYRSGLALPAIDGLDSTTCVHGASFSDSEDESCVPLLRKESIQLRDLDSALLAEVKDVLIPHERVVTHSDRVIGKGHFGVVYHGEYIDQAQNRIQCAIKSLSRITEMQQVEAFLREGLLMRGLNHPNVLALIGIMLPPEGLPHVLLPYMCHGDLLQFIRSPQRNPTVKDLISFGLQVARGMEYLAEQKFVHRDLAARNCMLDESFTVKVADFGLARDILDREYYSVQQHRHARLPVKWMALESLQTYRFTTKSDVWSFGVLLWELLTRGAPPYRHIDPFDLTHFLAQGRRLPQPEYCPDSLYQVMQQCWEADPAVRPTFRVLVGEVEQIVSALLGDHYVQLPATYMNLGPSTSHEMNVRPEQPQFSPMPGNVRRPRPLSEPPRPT
Source text: (§1) The plot indicates percent activity of RON or cMet as a function of the log concentration of the compound (in moles, M). From the plot, the IC50 values may be obtained.

cMet = cMet (Homo sapiens, UniProt P08581); assay: cMet inhibition (percent activity vs log concentration)
cMet, sequence (P08581 25-1390): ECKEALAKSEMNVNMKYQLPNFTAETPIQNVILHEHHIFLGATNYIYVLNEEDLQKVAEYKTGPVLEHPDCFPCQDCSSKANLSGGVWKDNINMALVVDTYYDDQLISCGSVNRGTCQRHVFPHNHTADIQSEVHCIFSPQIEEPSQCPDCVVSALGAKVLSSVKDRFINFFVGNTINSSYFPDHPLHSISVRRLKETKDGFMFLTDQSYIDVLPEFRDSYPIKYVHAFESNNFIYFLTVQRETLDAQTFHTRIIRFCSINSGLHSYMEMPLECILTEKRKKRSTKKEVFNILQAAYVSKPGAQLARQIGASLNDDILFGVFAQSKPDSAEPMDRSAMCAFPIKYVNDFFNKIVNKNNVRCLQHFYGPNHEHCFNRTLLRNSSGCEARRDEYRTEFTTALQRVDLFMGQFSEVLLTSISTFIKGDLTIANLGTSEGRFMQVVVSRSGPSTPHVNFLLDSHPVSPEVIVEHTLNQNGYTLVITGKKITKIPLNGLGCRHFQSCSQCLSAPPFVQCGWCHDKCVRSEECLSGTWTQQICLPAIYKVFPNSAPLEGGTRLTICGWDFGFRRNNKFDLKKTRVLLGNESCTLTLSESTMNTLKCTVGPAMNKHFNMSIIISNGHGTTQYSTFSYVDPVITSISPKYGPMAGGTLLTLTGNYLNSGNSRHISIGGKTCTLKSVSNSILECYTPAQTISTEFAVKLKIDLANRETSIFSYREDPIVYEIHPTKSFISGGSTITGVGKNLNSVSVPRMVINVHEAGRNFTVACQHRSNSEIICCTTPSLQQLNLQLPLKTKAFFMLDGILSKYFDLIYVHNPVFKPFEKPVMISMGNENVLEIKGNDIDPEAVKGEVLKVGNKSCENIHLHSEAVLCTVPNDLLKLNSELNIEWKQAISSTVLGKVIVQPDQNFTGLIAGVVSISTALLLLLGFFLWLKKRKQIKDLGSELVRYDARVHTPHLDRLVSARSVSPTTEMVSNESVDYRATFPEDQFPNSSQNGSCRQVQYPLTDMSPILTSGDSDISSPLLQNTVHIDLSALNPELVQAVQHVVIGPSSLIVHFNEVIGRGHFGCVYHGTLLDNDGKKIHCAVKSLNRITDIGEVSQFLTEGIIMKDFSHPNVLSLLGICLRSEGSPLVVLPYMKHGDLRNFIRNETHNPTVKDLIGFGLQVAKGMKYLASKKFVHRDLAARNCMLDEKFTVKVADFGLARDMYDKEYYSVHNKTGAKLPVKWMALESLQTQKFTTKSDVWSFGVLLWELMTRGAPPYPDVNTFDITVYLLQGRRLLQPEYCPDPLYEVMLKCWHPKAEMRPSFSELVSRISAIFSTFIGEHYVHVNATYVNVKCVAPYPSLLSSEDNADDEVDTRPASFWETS
Source text: as §1

506 cell lines = assay: Sensitivity of 506 cell lines to Dasatinib; format: cell-based; details: FIG. 10
Source text: The bar plot indicates the effect of various SRC inhibitors, YES inhibitors, or dual SRC/YES inhibitors on the sensitivity of the cells to inhibition; along with an inhibitor for an unrelated/control kinase WEE1. Each bar represents a different type of inhibitor, which may inhibit SRC, YES, SRC and YES, or WEE1. Bars 1-2 from the left of the plot indicate cells are most sensitive to inhibition when SRC and YES are both inhibited. Bars 3-6 from the left of the plot indicate sensitivity to inhibition for cells treated with SRC inhibitors. Bar 7 from the left of the plot indicates sensitivity to inhibition for cells treated with WEE1 inhibitor. […] from the left of the plot also indicate sensitivity to inhibition for cells treated with SRC inhibitors. Bar 9 from the left of the plot indicates sensitivity to inhibition for cells treated with YES1 inhibitor. Bar 10 from the left of the plot indicates sensitivity to inhibition for cells treated with WEE1 inhibitor. Increased sensitivity to inhibition is observed in SRC and YES dual inhibition, compared to SRC-only inhibition or YES-only inhibition. In FIG. 10, 506 cell lines are compared for sensitivity to Dasatinib (SRC and YES inhibitor). 119 of the 506 cell lines are more sensitive to Dasatinib than MDA-MB-231 cells. […] Cell lines that are sensitive to Dasatinib are more sensitive to other dual inhibitors of YES and SRC.

RON [3] = target: T1, RON; assay: RON dissociation constant (Kd); format: binding
Source text: The four compounds “ENG-009”, “ENG-015”, “ENG-018”, and“ENG-035” are shown, along with their Ron and cMet inhibitory activities.

MDA-MB-231 cells = assay: MDA-MB-231 cell viability as a function of SU-6656 concentration, with or without Dasatinib co-treatment; format: cell-based; details: Homo sapiens, MDA-MB-231, MDA-MB-231, read-out: concentration of SU-6656 at 50% viability
Protocol: An additional approach to validate the CombiGEM results (dual SRC and YES knockout using Cas and DNA constructs) can include using small molecule inhibitors to reduce the function of SRC or YES. […] One group of cells is treated with only the YES inhibitor and the vehicle control (DMSO only). Two groups of cells are co-treated with Dasatinib, a SRC inhibitor, at a concentration of 500 nM or 1 μM. The control group (DMSO only, no Dasatinib) has a 50% viability at a concentration of 68.6 μM of SU-6656, compared to 20.4 μM for the cells co-treated with 500 nM Dasatinib and 12.7 μM for the cells co-treated with 1 μM Dasatinib.

IC50 (RON [2]): 8.5 nM
selectivity for RON over cMet (cMet IC50/RON IC50) (RON [2]; ratio): 0.9
IC50 (cMet): 7.3 nM
SMILES: CCOc1ccn(-c2ccc(F)cc2)c(=O)c1C(=O)Nc1ccc(Oc2ccnc(N)c2Cl)c(F)c1 [BMS777607, N-[4-[(2-amino-3-chloro-4-pyridinyl)oxy]-3-fluorophenyl]-4-ethoxy-1-(4-fluorophenyl)-2-oxo-3-pyridinecarboxamide]
potency (GI50) of RON inhibitor in the presence of Dasatinib vs its absence (DMSO) (cancer cell lines): potency (lower GI50) is greater for the RON inhibitor in the presence of Dasatinib than in its absence
tumor growth compared to vehicle control ([1]; RON inhibitor only, BMS777607 20 mpk): slightly lower compared to the vehicle control

IC50 (RON [2]): 222 to 291 nM
cMet inhibition (in words) (cMet): inactive
SMILES: Cn1cnc(-c2nc3c(Oc4ccc(NC(=O)c5cnn(-c6ccccc6)c5C(F)(F)F)cc4F)ncnc3s2)c1 [ENG-009, N-(3-fluoro-4-((2-(1-methyl-1H-imidazol-4-yl)thiazolo[5,4-d]pyrimidin-7-yl)oxy)phenyl)-1-phenyl-5-(trifluoromethyl)-1H-pyrazole-4-carboxamide]

IC50 (RON [2]): 1.6 nM
selectivity for RON over cMet (cMet IC50/RON IC50) (RON [2]): approximately 10 fold
SMILES: CCN1CCN(CCCOc2cc3nccc(Oc4c(F)cc(NC(=O)NN5C(=O)CSC5c5c(F)cccc5F)cc4F)c3cc2OC)CC1 (stereo not shown) [ENG-013, 1-(2-(2,6-difluorophenyl)-4-oxothiazolidin-3-yl)-3-(4-((7-(3-(4-ethylpiperazin-1-yl)propoxy)-6-methoxyquinolin-4-yl)oxy)-3,5-difluorophenyl)urea]

IC50 (RON [2]): 2.8 nM
selectivity for RON over cMet (cMet IC50/RON IC50) (RON [2]): approximately 50 fold
IC30 for RON (RON [2]; printed as IC30): 2.8 nM
selectivity for RON over cMet (cMet IC50/RON IC50) (RON [2]; ratio): > 47
IC50 (cMet): 133 nM
SMILES: Cn1cnc(-c2cc3nccc(Oc4ccc(NC(=O)c5cnn(-c6ccccc6)c5C(F)(F)F)cc4F)c3cn2)c1 [ENG-015, N-(3-fluoro-4-((7-(1-methyl-1H-imidazol-4-yl)-1,6-naphthyridin-4-yl)oxy)phenyl)-1-phenyl-5-(trifluoromethyl)-1H-pyrazole-4-carboxamide]

RON inhibition (in words) (RON [2]): relatively inactive
cMet inhibition (in words) (cMet): relatively inactive
SMILES: Cn1cnc(-c2ccc3c(Oc4ccc(NC(=O)c5cnn(-c6ccccc6)c5C(F)(F)F)cc4F)n[nH]c3c2)c1 [ENG-018, N-(3-fluoro-4-((6-(1-methyl-1H-imidazol-4-yl)-1H-indazol-3-yl)oxy)phenyl)-1-phenyl-5-(trifluoromethyl)-1H-pyrazole-4-carboxamide]

Kd (RON [3]): 43 nM
selectivity for RON over cMet (cMet IC50/RON IC50) (RON [2]): ~2.3 fold
SMILES: Cn1cnc(-c2nc3nccc(Oc4ccc(NC(=O)c5cnn(-c6ccccc6)c5C(F)(F)F)cc4F)c3s2)c1 [ENG-035, N-(3-fluoro-4-((2-(1-methyl-1H-imidazol-4-yl)thiazolo[4,5-b]pyridin-7-yl)oxy)phenyl)-1-phenyl-5-(trifluoromethyl)-1H-pyrazole-4-carboxamide]

The remaining lines, values behind:

SMILES: Cc1nc(Nc2ncc(C(=O)Nc3c(C)cccc3Cl)s2)cc(N2CCN(CCO)CC2)n1.O [Dasatinib, N-(2-chloro-6-methylphenyl)-2-[[6-[4-(2-hydroxyethyl)-1-piperazinyl]-2-methyl-4-pyrimidinyl]amino]-5-thiazole carboxamide monohydrate]
number of the 506 cell lines more sensitive to Dasatinib than MDA-MB-231 cells (506 cell lines): 119
tumor growth compared to vehicle control ([1]; SRC inhibitor only, Dasatinib 10 mpk): slightly lower compared to the vehicle control

SMILES: COc1cc2c(Oc3ccc(NC(=O)C4(C(=O)Nc5ccc(F)cc5)CC4)cc3F)ccnc2cc1OCCCN1CCOCC1 [Foretinib, N1′-[3-fluoro-4-[[6-methoxy-7-(3-morpholinopropoxy)-4-quinolyl]oxy]phenyl]-N1-(4-fluorophenyl)cyclopropane-1,1-dicarboxamide]
potency (GI50) of RON inhibitor in the presence of Dasatinib vs its absence (DMSO) (cancer cell lines): potency (lower GI50) is greater for the RON inhibitor in the presence of Dasatinib than in its absence

SMILES: CN(C)S(=O)(=O)c1ccc2c(c1)/C(=C/c1cc3c([nH]1)CCCC3)C(=O)N2 [SU-6656, (3Z)-N,N-Dimethyl-2-oxo-3-(4,5,6,7-tetrahydro-1H-indol-2-ylmethylidene)-2,3-dihydro-1H-indole-5-sulfonamide]
IC50 (MDA-MB-231 cells; DMSO only, no Dasatinib): 68600 nM
IC50 (MDA-MB-231 cells; co-treated with 500 nM Dasatinib): 20400 nM
IC50 (MDA-MB-231 cells; co-treated with 1 μM Dasatinib): 12700 nM

SMILES: CC1=C(C#N)C(c2ccc3[nH]nc(OCCOC(C)C)c3c2)C(C#N)=C(C)N1 [tool compound 2, 4-(3-(2-isopropoxyethoxy)-1H-indazol-5-yl)-2,6-dimethyl-1,4-dihydropyridine-3,5-dicarbonitrile]
IC50 (RON [2]): 8600 nM
